Results published in BindingDB's records for doi:10.1074/jbc.M113.514067 (Genentech, 2014).

What follows are compounds tested against Proprotein convertase subtilisin/kexin type 9 (Homo sapiens, UniProt Q8NBP7) (assay: PCSK9 Inhibition Assay).
Description: For the peptide affinity determinations, biotinylated PCSK9 was immobilized to NeutrAvidin-coated MaxiSorp Immuno-Plates and incubated with a mixture of serially diluted synthetic peptide (Pep2-2 or Pep2 at 0-100 μM) and the correspondingpeptide-displaying phage at the earlier determined subsaturating concentration (see above). After a 1-h incubation in PBT buffer (PBS, 0.5% BSA, 0.05% Tween 20), the plate was washed extensively, and the bound phage was detected by anti-M13-HRP. The data were fitted to a four-parameter equation (KaleidaGraph) to determine the IC50 values. For IC50 measurements of the Pep2-2 derivatives (Fig. 1C) and for the truncated Pep2-8 peptides (Table 1), we used the peptides in a concentration range of 0-250 μM and the Pep2-2-displaying phage at subsaturating concentrations.

Sequence of Proprotein convertase subtilisin/kexin type 9 (Q8NBP7 31-152 limits assumed): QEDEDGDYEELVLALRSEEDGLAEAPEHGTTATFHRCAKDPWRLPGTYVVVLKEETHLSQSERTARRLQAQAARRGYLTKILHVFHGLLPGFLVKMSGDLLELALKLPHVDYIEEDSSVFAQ
Sequence of Proprotein convertase subtilisin/kexin type 9 (Q8NBP7 153-692 limits assumed): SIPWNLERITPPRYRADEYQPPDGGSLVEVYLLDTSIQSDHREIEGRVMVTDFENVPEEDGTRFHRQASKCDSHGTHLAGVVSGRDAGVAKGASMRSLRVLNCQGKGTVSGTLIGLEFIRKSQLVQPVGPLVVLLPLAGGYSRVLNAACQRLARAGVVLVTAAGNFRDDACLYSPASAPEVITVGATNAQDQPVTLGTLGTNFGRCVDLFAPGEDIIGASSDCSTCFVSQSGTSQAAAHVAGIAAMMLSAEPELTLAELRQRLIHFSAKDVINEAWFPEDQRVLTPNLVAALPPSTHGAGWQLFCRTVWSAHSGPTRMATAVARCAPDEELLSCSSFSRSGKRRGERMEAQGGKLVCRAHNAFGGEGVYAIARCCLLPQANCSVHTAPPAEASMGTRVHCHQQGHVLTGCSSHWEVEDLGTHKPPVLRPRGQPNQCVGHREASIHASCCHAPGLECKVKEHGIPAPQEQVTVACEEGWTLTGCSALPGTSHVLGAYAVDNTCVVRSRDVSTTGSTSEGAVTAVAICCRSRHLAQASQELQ

Row | Compound | IC50
1 | CC(=O)N[C@H](C(=O)N[C@H](C(=O)N[C@@H](Cc1ccccc1)C(=O)N[C@H](C(=O)N[C@@H](CO)C(=O)N[C@@H](Cc1c[nH]c2ccccc12)C(=O)N[C@@H](CCC(=O)O)C(=O)N[C@@H](CCC(=O)O)C(=O)N[C@@H](Cc1ccc(O)cc1)C(=O)N[C@@H](CC(C)C)C(=O)N[C@@H](CC(=O)O)C(=O)N[C@@H](Cc1c[nH]c2ccccc12)C(=O)N[C@H](C(N)=O)C(C)C)[C@@H](C)O)C(C)C)[C@@H](C)O [TVFTSWEEYLDWV] | 1.4 µM
2 | Ac-TVFTSWEEYL-NH2 [TVFTSWEEYL] | 17.6 µM
3 | Ac-TVFTSWEEYLL-NH2 [TVFTSWEEYLL] | 10 µM
4 | Ac-TVFTSWEEYLLW-NH2 [TVFTSWEEYLLW] | 6.2 µM
5 | Ac-TVFTSWEEYLLWV-NH2 [TVFTSWEEYLLWV] | 0.76 µM
6 | Ac-VFTSWEEYLLWV-NH2 [VFTSWEEYLLWV] | 4 µM
7 | Ac-VVFTSWQDYLFWV-NH2 [VVFTSWQDYLFWV] | 37.7 µM
